Reference: patent US8129592B2, “Plant isoflavonoid hydroxylases and methods of use thereof” (The Samuel Roberts Noble Foundation, Inc., priority 2003, dated 2012)
Marks after values point to notes of the source that are not given here.

What was measured:
[1] = target: T1, I2′H (MtCYP81E7) (Medicago truncatula, UniProt Q6WNR0); test: Hydroxylase assay with yeast microsomes expressing recombinant MtCYP81E7 (I2′H); format: biochemical; conditions: for Substrate specificity of I2′H (MtCYP81E7), relative activity: 100% = biochanin A, a = sum of putative 2′ and/or 3′-hydroxylated products, ND = activities not detectable
T1 construct: The open reading frame of MtCYP81E7 was amplified with forward primer; made in house; host or cells: Saccharomyces cerevisiae WAT11, vector YeDP60; microsomal fraction
T1 sequence (Q6WNR0 1-498): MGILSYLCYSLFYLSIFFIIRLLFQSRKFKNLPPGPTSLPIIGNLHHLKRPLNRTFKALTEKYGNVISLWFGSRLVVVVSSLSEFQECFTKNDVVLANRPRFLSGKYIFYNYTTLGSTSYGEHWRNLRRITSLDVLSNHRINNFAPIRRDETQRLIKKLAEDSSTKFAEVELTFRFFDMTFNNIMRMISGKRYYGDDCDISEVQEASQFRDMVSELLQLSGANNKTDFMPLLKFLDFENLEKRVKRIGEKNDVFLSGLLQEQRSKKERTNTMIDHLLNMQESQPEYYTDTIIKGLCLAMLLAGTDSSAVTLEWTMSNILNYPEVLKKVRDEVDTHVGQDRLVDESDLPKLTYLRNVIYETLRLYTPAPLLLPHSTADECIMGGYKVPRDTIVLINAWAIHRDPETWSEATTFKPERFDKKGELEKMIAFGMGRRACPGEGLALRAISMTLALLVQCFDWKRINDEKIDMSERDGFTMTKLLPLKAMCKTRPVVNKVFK
Procedure: (§1) PCR products were digested with BamHI and KpnI and ligated into the yeast expression vector YeDP60 following BamHI/KpnI digestion. MtCYP81E8 was directly excised from the original clone in pBSK(+) by BamHI and KpnI and inserted into YeDP60. All constructs were sequenced to ensure that there were no PCR-introduced errors. […] After induction with 20% galactose for ˜18 h, yeast cells was harvested, weighed, and immediately processed for microsomal fractionation.
(§2) After incubation at ˜80 rpm for 30 to 40 min, spheroplasts were centrifuged down for 5 min, washed twice with Zymolyase buffer B, and then twice with phosphate buffer A (0.1 M potassium phosphate pH 8.0, 1 M sorbitol, 14 mM 2-mercaptoethanol). The spheroplasts were re-suspended in a minimum vol of phosphate buffer B (0.1 M potassium phosphate pH 8.0, 0.4 M sucrose, 14 mM β-mercaptoethanol, 1 mM PMSF and 1× […] (Roche Diagnostics GmbH, Mannheim, German), and 1 vol of glass beads (diameter at 0.45/0.50 mm) was added. Samples were vigorously vortexed at 4° C., with the quality of cell disruption checked under the microscope. The supernatant was then removed and the beads washed four times with phosphate buffer B. Supernatants were pooled and centrifuged at 12,000 g for 10 min; the resulting supernatant was then ultracentrifuged at 140,000 g for 90 min. The supernatant was discarded and the pellet washed briefly with phosphate buffer C (0.1 M potassium phosphate, pH 8.0, 0.4 M sucrose, 0.5 mM glutathione), and re-suspended in the same buffer plus 5% glycerol at about 12 mg total protein/ml. Protein was quantified using a Bio-Rad protein assay kit (Bio-Rad, Hercules, Calif.).
(§3) Hydroxylase assays were performed in phosphate buffer C in a total volume of 150 μl containing 2 mM NADPH, 40 μM isoflavone substrate and 40˜70 pmol P450 protein. […] The extracts were combined, evaporated under N2, re-suspended in 60 μl of methanol, and analyzed by HPLC or LC-MS. All assays to determine enzyme specificity were carried out in duplicate. For kinetic studies, the isoflavone concentration was varied at a fixed concentration of NADPH (2 mM), and kinetic constants calculated from initial rate data using Lineweaver-Burke double reciprocal plots. All kinetic analyses were carried out in triplicate.
(§4) Reaction products from enzyme assays (30 μl) were analyzed by HPLC.
(§5) Product identification was firstly based on comparisons of chromatographic behavior and UV spectra with authentic standards. Identifications were then confirmed by HPLC-MS, using a HP 1100 liquid chromatograph coupled to a Bruker Esquire Ion-Trap mass spectrometer equipped with an electrospray source. HPLC separation was achieved using a J. T. Baker Bakerbond reverse-phase column (C18, 5 μm, 4.6 mm×250 mm, J. T. Baker, Philipsberg, N.J.). Samples were eluted with the gradient described above but with 0.1% aqueous acetic acid replacing the 1% phosphoric acid. Ion charge control was set at 30,000 with a max acquire time of 100 ms. Mass spectra were recorded over a range of 50-2200 m/z.

[2] = target: T2, I3′H (MtCYP81E9) (Medicago truncatula, UniProt Q6WNQ9); test: Hydroxylase assay with yeast microsomes expressing recombinant MtCYP81E9 (I3′H); format: biochemical; conditions: for Substrate specificity of I3′H (MtCYP81E9), relative activity: 100% = biochanin A, a = sum of putative 2′ and/or 3′-hydroxylated products, b = sum of all the products, ND = activities not detectable
T2 construct: made in house; host or cells: Saccharomyces cerevisiae WAT11, vector YeDP60; microsomal fraction
T2 sequence (Q6WNQ9 with tags, fused parts or gaps limits assumed): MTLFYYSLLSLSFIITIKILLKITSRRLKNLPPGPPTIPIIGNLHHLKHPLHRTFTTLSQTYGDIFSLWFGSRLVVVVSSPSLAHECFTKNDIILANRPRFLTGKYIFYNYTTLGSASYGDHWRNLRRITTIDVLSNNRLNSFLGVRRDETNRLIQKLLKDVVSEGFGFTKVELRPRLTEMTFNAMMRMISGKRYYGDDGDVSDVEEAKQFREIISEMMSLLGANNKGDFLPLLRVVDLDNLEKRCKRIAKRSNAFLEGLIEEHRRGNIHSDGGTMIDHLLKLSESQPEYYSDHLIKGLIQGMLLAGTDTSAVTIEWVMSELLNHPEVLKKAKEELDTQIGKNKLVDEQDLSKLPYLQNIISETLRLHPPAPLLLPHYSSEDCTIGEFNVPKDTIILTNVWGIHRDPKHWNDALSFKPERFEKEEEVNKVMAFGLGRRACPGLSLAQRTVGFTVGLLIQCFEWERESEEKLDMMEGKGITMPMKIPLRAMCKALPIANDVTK
Procedure: as §1, §2, §3, §4, §5

[3] = target: T3, MtCYP81E8 (Medicago truncatula, UniProt Q6WNQ8); test: Hydroxylase assay with yeast microsomes expressing recombinant MtCYP81E8; format: biochemical; conditions: standard assay conditions, or at different pH values and NADPH concentrations
T3 construct: The full length CYP81E8 cDNA was directly excised from its original clone; made in house; host or cells: Saccharomyces cerevisiae WAT11, vector YeDP60; microsomal fraction
T3 sequence (Q6WNQ8 1-499): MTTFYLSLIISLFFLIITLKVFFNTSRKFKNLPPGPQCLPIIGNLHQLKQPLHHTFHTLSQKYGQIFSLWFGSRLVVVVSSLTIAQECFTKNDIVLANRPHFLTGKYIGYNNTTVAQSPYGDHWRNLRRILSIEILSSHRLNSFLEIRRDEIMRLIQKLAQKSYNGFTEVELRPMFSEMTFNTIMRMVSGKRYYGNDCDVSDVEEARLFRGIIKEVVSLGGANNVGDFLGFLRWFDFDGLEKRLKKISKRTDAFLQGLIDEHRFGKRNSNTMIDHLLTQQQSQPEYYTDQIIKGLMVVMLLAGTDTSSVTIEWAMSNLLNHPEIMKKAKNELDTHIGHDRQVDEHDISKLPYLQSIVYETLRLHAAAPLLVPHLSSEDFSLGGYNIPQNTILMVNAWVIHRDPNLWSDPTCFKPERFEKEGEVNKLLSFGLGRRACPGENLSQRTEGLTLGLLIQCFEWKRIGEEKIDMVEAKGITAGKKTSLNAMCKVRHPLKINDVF
Procedure: as §1, §2, §3, §4

[4] = substrate: COc1ccc(-c2coc3cc(O)ccc3c2=O)cc1; test: Hydroxylase assay with yeast microsomes expressing recombinant MtCYP81E7 (I2′H); format: biochemical, Medicago truncatula; conditions: other: 2 mM NADPH and pH 8.0, 25.0 °C
Procedure: (§6) After incubation at ˜80 rpm for 30 to 40 min, spheroplasts were centrifuged down for 5 min, washed twice with Zymolyase buffer B, and then twice with phosphate buffer A (0.1 M potassium phosphate pH 8.0, 1 M sorbitol, 14 mM 2-mercaptoethanol). The spheroplasts were re-suspended in a minimum vol of phosphate buffer B (0.1 M potassium phosphate pH 8.0, 0.4 M sucrose, 14 mM β-mercaptoethanol, 1 mM PMSF and 1× protein inhibitor cocktail (Roche Diagnostics GmbH, Mannheim, German), and 1 vol of glass beads (diameter at 0.45/0.50 mm) was added. Samples were vigorously vortexed at 4° C., with the quality of cell disruption checked under the microscope. The supernatant was then removed and the beads washed four times with phosphate buffer B. Supernatants were pooled and centrifuged at 12,000 g for 10 min; the resulting supernatant was then ultracentrifuged at 140,000 g for 90 min. The supernatant was discarded and the pellet washed briefly with phosphate buffer C (0.1 M potassium phosphate, pH 8.0, 0.4 M sucrose, 0.5 mM glutathione), and re-suspended in the same buffer plus 5% glycerol at about 12 mg total protein/ml. Protein was quantified using a Bio-Rad protein assay kit (Bio-Rad, Hercules, Calif.).
(§7) Hydroxylase assays were performed in phosphate buffer C in a total volume of 150 μl containing 2 mM NADPH, 40 μM isoflavone substrate and 40˜70 pmol P450 protein. Reactions were incubated at 25° C. for 1.5 h (over which period the reactions were linear) with gentle shaking and stopped by extracting twice with 500 μl of ethyl acetate. The extracts were combined, evaporated under N2, re-suspended in 60 μl of methanol, and analyzed by HPLC or LC-MS. All assays to determine enzyme specificity were carried out in duplicate. For kinetic studies, the isoflavone concentration was varied at a fixed concentration of NADPH (2 mM), and kinetic constants calculated from initial rate data using Lineweaver-Burke double reciprocal plots. All kinetic analyses were carried out in triplicate.
(§8) Product identification was firstly based on comparisons of chromatographic behavior and UV spectra with authentic standards. Identifications were then confirmed by HPLC-MS, using a HP 1100 liquid chromatograph coupled to a Bruker Esquire Ion-Trap mass spectrometer equipped with an electrospray source. HPLC separation was achieved using a J. T. Baker Bakerbond reverse-phase column (C18, 5 μm, 4.6 mm×250 mm, J. T. Baker, Philipsberg, N.J.). […] Mass spectra were recorded over a range of 50-2200 m/z.

[5] = substrate: COc1ccc(-c2coc3cc(O)cc(O)c3c2=O)cc1; test: as above; format: biochemical, Medicago truncatula; conditions: other: 2 mM NADPH and pH 8.0, 25.0 °C
Procedure: as §6, §7, §8

Molecule	Activity of MtI2′H with substrate (in words) [1]	Substrate specificity of I2′H (MtCYP81E7), relative activity ([1]; isoflavone 40 μM)	Activity of MtI3′H with substrate (in words) [2]	Substrate specificity of I3′H (MtCYP81E9), relative activity ([2]; isoflavone 40 μM)	other results
COc1ccc(-c2coc3cc(O)ccc3c2=O)c(O)c1 [2′-Hydroxyformononetin]	negligible activity	9.1%^a	more active	39.34%^b	
COc1ccc(-c2coc3cc(O)ccc3c2=O)cc1O [3′-Hydroxyformononetin]	negligible activity	4.7%			
COc1ccc(-c2coc3cc(O)cc(O)c3c2=O)cc1 [Biochanin A]		100%		100%	Activity corresponding to 100%, 2′-hydroxylation ([1]; isoflavone 40 μM, 2 mM NADPH): 53.8 pmol/pmol protein/h; Activity corresponding to 100%, 3′-hydroxylation ([2]; isoflavone 40 μM, 2 mM NADPH): 98.56 pmol pmol^−1 protein h^−1
O=c1c(-c2ccc(O)cc2)coc2cc(O)ccc12 [Daidzein, 7,4′-dihydroxyisoflavone]	weak activity	18.6%^a	low activity	1.73%^a	
COc1ccc(-c2coc3cc(O)ccc3c2=O)cc1 [Formononetin, 7-hydroxy, 4′-methoxyisoflavone]		37.2%		50%	
O=c1c(-c2ccc(O)cc2)coc2cc(O)cc(O)c12 [Genistein, 5,7,4′-trihydroxyisoflavone]	weak activity	10.2%^a		19.13%^a	
COc1ccc2c(=O)c(-c3ccc(O)cc3)coc2c1 [Isoformononetin]	Neither enzyme hydroxylated		Neither enzyme hydroxylated		
COc1cc(O)c2c(=O)c(-c3ccc(O)cc3)coc2c1 [Prunetin]	Neither enzyme hydroxylated		Neither enzyme hydroxylated		
O=c1c(-c2ccc3c(c2)OCO3)coc2cc(O)ccc12 [Pseudobaptigenin]	active	35%	low activity	7.6%^a	
O=c1cc(-c2ccc(O)cc2)oc2cc(O)cc(O)c12 [apigenin]					Activity of recombinant MtCYP81E8 with substrate (in words) [3]: no activity
O=C1C[C@@H](c2ccc(O)cc2)Oc2cc(O)ccc21 [liquiritigenin]					Activity of recombinant MtCYP81E8 with substrate (in words) [3]: no activity
O=c1cc(-c2ccc(O)c(O)c2)oc2cc(O)cc(O)c12 [luteolin]					Activity of recombinant MtCYP81E8 with substrate (in words) [3]: no activity
O=C1C[C@@H](c2ccc(O)cc2)Oc2cc(O)cc(O)c21 [narigenin]					Activity of recombinant MtCYP81E8 with substrate (in words) [3]: no activity
NADPH					Km ([1]; read-out: apparent KM value of MtCYP81E7 for NADPH): ~0.17 µM
I2′H (MtCYP81E7) (Medicago truncatula) (protein, The open reading frame of MtCYP81E7 was amplified with forward primer; made in house; host or cells: Saccharomyces cerevisiae WAT11, vector YeDP60; microsomal fraction) MGILSYLCYSLFYLSIFFIIRLLFQSRKFKNLPPGPTSLPIIGNLHHLKRPLNRTFKALTEKYGNVISLWFGSRLVVVVSSLSEFQECFTKNDVVLANRPRFLSGKYIFYNYTTLGSTSYGEHWRNLRRITSLDVLSNHRINNFAPIRRDETQRLIKKLAEDSSTKFAEVELTFRFFDMTFNNIMRMISGKRYYGDDCDISEVQEASQFRDMVSELLQLSGANNKTDFMPLLKFLDFENLEKRVKRIGEKNDVFLSGLLQEQRSKKERTNTMIDHLLNMQESQPEYYTDTIIKGLCLAMLLAGTDSSAVTLEWTMSNILNYPEVLKKVRDEVDTHVGQDRLVDESDLPKLTYLRNVIYETLRLYTPAPLLLPHSTADECIMGGYKVPRDTIVLINAWAIHRDPETWSEATTFKPERFDKKGELEKMIAFGMGRRACPGEGLALRAISMTLALLVQCFDWKRINDEKIDMSERDGFTMTKLLPLKAMCKTRPVVNKVFK					Km [4]: 67 µM; kcat [4]: 0.015 s⁻¹; Km [5]: 51 µM; kcat [5]: 0.033 s⁻¹
